Read-outs that look alike come from different tables or passages of the source.

The IC50 is the concentration that inhibits the measured activity by half. A word on the AUC(0-t): it is exposure summed from dosing to a finite time, without extrapolation to infinity. Broadly, the Cmax is the peak of the concentration-time curve. Broadly, the half-life is the time in which the quantity being followed falls by half. What is called Dmax is the largest share of the target that was removed. Lower therefore signals a partial loss of target. For orientation: DC50 means the midpoint of the concentration-degradation curve. Broadly, the clearance is the volume of plasma or blood freed of the substance per unit of time. A lower clearance goes with inefficient removal.

In data set [1] the test system is MM.1S cells. In words: MM.1S cell proliferation assay (CellTiter-Glo). It counts as cell-based. The settings on record: for IC50: Homo sapiens, MM1.S, read-out: MM.1S: IC50; for Ymin: lowest cell viability read normalized to DMSO control, MM.1S, 120 hours. The procedure: About 3,000 cells in 50 μL of culture medium were seeded per well. Assay plates were incubated at 37° C. with 5% CO2 for 120 hours. After that, 20 μL of the CellTiter-Glo Luminescent Cell Viability Assay Reagent (Cat #G7573, Promega) was added to each well and incubated at room temperature for 30 minutes. Luminescence was then measured with an EnVision plate reader (PerkinElmer) or a PHERAstar plate reader (BMG LABTECH). All percentage of cell growth inhibition curves were processed using Collaborative Drug Discovery Vault softwares. Cell viability reads in compound-treated wells were normalized to that of DMSO control and expressed as Percent of Control (PoC, y). A four Parameter Logistic Model was used to determine the compound's EC50 and DC50, using the following equation:
[formula] • wherein, • A=Ymin (lowest cell viability read normalized to DMSO control in response to compound treatment, as determined by curve fit) • B=Ymax (the maximum value, cell viability read in DMSO control) • C=EC50 half inhibitory concentration • D=Hill Slope • x=compound concentration
(§1) EC50=the concentration of compound when y=(Ymax−Ymin)/2
y=cell viability read normalized to DMSO control
(ATP-based viability assays read luminescence as a measure of living cells.)

A short description of data set [2]: Pharmacokinetic study in mice. It counts as in vivo. The conditions noted are these: male CD1 mice. Here is the method:
Objective: The objective of this study was to determine the pharmacokinetics of test compound following a single intravenous (IV) bolus dose and a single oral (PO) administration in male CD1 mice by quantifying the concentrations of the test compound at different times in plasma using LC/MS/MS method.
Materials: Male CD1 mouse (20-30 g, 6-8 weeks, Zhejiang Vital River Laboratory Animal Technology Co., Ltd.).
The clear solution of the test article was injected into CD1 mice via tail vein (free access to food and water), or orally administrated into CD1 mice (free access to food and water). After administration, blood was collected from the dorsal metatarsal vein at 5 min (0.0833 h, IV only), 15 min (0.25 h), 30 min (0.5 h), 60 min (1 h), 2 h, 4 h, 6 h, 8 h and 24 h. Blood samples were placed in an anticoagulant tube with EDTA-K2 at 4° C., mixed adequately and centrifuged at 4000 g for 5 min to get the plasma. The plasma concentration was quantified by LC-MS/MS. The PK parameters were calculated using non-compartmental model by Phoenix WinNonlin 6.1 (Linear/log trapezoidal).

In data set [3] the target is T1, HiBiT-tagged IKZF1 (Homo sapiens, UniProt Q13422+Q96SW2).
T1 construct: expressed in transfected cells; host or cells: HT-1080 (ATCC CCL-121), lentiviral transduction
T1 sequence (Q13422 whole entry): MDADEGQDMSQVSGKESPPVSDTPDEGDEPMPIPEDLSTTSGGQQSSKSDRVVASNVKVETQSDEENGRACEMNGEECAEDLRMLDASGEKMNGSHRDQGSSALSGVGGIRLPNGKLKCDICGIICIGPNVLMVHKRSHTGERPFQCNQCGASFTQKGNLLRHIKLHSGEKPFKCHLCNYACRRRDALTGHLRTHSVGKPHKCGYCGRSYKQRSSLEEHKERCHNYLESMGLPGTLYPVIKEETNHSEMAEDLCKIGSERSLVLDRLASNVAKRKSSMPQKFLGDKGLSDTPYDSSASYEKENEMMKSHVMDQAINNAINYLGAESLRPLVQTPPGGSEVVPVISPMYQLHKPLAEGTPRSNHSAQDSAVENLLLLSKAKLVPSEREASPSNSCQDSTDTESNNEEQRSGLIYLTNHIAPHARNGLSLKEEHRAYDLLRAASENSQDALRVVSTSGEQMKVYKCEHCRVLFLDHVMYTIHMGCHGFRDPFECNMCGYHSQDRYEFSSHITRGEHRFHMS
T1 sequence (Q96SW2 whole entry): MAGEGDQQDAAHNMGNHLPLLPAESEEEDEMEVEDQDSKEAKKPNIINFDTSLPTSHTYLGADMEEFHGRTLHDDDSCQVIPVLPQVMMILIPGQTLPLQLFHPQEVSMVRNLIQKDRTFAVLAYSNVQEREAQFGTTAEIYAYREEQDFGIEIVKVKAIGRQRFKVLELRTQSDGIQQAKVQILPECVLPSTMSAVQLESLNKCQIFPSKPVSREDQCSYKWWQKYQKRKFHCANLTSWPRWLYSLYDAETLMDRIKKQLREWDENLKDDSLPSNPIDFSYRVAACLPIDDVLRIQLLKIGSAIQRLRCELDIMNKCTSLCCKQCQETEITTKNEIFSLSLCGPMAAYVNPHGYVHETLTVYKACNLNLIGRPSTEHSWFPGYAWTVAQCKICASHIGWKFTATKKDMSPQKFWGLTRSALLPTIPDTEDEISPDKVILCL
T1 sequence (Q16531 whole entry partner): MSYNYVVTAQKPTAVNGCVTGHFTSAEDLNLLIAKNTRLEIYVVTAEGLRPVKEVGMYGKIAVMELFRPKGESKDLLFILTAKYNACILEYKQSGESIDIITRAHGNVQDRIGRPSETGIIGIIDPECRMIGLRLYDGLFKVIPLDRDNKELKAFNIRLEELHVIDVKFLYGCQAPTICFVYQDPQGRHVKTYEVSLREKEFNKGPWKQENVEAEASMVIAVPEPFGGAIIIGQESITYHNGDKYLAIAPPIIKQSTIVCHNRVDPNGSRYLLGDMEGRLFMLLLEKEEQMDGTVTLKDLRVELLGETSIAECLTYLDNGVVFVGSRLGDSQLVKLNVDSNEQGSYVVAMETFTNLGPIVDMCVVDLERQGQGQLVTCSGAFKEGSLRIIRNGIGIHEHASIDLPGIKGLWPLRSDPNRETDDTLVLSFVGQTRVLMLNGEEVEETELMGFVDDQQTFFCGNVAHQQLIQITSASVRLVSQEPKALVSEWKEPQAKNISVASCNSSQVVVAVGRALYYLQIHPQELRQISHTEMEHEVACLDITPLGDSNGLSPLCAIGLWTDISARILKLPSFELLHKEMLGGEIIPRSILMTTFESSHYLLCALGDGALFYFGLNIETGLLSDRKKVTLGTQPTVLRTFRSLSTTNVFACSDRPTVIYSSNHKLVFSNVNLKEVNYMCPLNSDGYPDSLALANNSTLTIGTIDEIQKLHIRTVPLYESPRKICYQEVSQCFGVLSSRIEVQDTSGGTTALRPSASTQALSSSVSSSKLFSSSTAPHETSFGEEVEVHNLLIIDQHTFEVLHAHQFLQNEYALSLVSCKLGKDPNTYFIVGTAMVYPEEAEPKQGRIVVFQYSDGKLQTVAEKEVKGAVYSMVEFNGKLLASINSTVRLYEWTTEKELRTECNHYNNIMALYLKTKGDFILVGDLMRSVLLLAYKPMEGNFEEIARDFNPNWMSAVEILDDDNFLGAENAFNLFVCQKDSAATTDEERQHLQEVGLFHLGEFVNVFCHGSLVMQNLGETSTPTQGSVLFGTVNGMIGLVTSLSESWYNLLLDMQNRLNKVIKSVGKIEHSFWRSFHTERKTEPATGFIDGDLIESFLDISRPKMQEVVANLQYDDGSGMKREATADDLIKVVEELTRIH
Description: Degradation assay for IKZF1 (HiBiT tag bioluminescence assay). It counts as cell-based. Here is the method:
(§2) About 10,000 cells in complete DMEM cell culture media were seeded per well. Assay plates were incubated at 37° C. with 5% CO2 for hours, followed by the assessment of IKZF1 or SALL4 degradation using the Nano-Glo HiBiT Lytic Detection Reagent (Cat #N3050, Promega) according to the manufacturer's instruction. Luminescence was then measured with an EnVision plate reader (PerkinElmer) or a PHERAstar plate reader (BMG Labtech). All IKZF1 or SALL4 degradation curves were processed using Collaborative Drug Discovery Vault softwares. IKZF1 or SALL4 levels in compound-treated wells were normalized to that of DMSO control and expressed as Percent of Control (PoC, y). A four Parameter Logistic Model was used to determine the compound's EC50 and DC50, using the following equation:
(§3) A=Ymin (lowest IKZF1 or SALL4 level normalized to DMSO control in response to compound treatment, as determined by curve fit)
(§4) B=Ymax (IKZF1 or SALL4 level in DMSO control)
(§5) C=EC50 half degradation concentration
as §1
(§6) DC50=test sample concentration when IKZF1 or SALL4 readings y=50% DMSO-treated samples
(§7) y=IKZF1 or SALL4 readings after test sample treatment (normalized to IKZF1 or SALL4 readings in DMSO-treated samples)
(§8) Dmax represents the maximum percentage of IKZF1 or SALL4 protein degradation induced by compound treatment.
A general note: With HiBiT, luminescence reflects the tagged protein that the partner subunit can reach.

For data set [4], the target named is T2, HiBiT-tagged SALL4 (Homo sapiens, UniProt Q96SW2+Q9UJQ4).
T2 construct: expressed in transfected cells; host or cells: HT-1080 (ATCC CCL-121), lentiviral transduction
T2 sequence (Q9UJQ4 whole entry): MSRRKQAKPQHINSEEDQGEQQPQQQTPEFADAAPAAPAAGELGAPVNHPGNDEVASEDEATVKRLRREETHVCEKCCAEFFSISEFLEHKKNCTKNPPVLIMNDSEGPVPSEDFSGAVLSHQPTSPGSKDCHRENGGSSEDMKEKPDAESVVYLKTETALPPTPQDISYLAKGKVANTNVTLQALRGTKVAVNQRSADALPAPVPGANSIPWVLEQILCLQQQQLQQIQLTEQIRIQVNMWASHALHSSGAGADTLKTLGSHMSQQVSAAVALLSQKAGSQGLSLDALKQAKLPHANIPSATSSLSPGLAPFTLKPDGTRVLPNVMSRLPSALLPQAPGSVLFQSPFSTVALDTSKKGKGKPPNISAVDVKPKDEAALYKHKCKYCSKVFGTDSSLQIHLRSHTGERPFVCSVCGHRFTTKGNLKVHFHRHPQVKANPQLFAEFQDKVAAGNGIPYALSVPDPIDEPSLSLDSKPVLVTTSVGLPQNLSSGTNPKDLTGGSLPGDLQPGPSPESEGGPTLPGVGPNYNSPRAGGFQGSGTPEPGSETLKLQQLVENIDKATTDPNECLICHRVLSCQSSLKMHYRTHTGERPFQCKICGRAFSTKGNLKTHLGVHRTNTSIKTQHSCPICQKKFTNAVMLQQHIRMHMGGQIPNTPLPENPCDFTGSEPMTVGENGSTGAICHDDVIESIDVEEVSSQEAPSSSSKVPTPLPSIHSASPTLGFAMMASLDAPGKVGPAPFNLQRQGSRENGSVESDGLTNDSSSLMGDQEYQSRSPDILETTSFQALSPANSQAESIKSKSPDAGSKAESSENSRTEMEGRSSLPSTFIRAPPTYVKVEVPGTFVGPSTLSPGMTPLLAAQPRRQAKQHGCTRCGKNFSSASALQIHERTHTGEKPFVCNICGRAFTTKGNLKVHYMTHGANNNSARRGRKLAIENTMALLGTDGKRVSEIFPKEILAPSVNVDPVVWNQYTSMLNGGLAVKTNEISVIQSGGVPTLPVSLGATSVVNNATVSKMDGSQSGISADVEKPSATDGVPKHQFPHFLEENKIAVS
T2 sequence (Q96SW2 whole entry): as the sequence (Q96SW2 whole entry) above
T2 sequence (Q16531 whole entry partner): as the sequence (Q16531 whole entry partner) above
Description: Degradation assay for SALL4 (HiBiT tag bioluminescence assay). It counts as cell-based. Here is the method:
as §2, §3, §4, §5, §1, §6, §7, §8

For data set [5], the target named is T1, HiBiT-tagged IKZF1. Description: IKZF1 protein degradation kinetics (IKZF1 HiBiT degradation assay, incubation 1, 2 or 4 hours). It counts as cell-based. The text has this: The following is a general method for testing compounds-induced degradation of HiBiT-tagged IKZF1 or SALL4 overexpressed in a human cell line, for example, the HT-1080 cell line (American Type Culture Collection (ATCC), catalog number CCL-121). The HT-1080 IKZF1 (or SALL4) HiBiT reporter cell line was engineered via lentiviral transduction to stably overexpress GSPT1 (Δ1-138)/G575N and HiBiT-tagged IKZF1 or SALL4. The HT-1080 IKZF1 (or SALL4) HiBiT reporter cell line was maintained in DMEM media supplemented with 10% fetal bovine serum, IX sodium pyruvate, 1× non-essential amino acids, IX glutamine, 100 U/ml penicillin, and 100 μg/mL streptomycin. The HT-1080 IKZF1 (or SALL4) HiBiT reporter cells were seeded into 384-well plates (Cat #3764, Corning) pre-spotted with DMSO or test compounds. Increasing concentrations of test compounds (ranging from 15.81 pM to 500 nM or from 0.3162 nM to 10 μM at a 3.162-fold increment) or DMSO were dispensed into an empty 384-well plate using an Echo 650 Acoustic Liquid Handler (Beckman Coulter). About 10,000 cells in complete DMEM cell culture media were seeded per well. Assay plates were incubated at 37° C. with 5% CO2 for hours, followed by the assessment of IKZF1 or SALL4 degradation using the Nano-Glo HiBiT Lytic Detection Reagent (Cat #N3050, Promega) according to the manufacturer's instruction. Luminescence was then measured with an EnVision plate reader (PerkinElmer) or a PHERAstar plate reader (BMG Labtech). All IKZF1 or SALL4 degradation curves were processed using Collaborative Drug Discovery Vault softwares. IKZF1 or SALL4 levels in compound-treated wells were normalized to that of DMSO control and expressed as Percent of Control (PoC, y). A four Parameter Logistic Model was used to determine the compound's EC50 and DC50, using the following equation: […]
The IKZF1 protein degradation kinetics of compounds 9-B and 9-A was evaluated using the IKZF1 HiBiT degradation assay as described above except that the incubation time was changed to 1, 2 or 4 hours.

Setting [6] is: antiproliferative, 120 hours incubation, CellTiter-Glo.
Where [7] appears, read: mouse, Table 5, PO (10 mg/kg), plasma.
The mark [8] stands for this setting: HT-1080, Table 1; HT-1080 IKZF1 HiBiT reporter cells; maximum percentage of protein degradation.
[9] abbreviates: Table 1; HT-1080 IKZF1 HiBiT reporter cells; performed once with technical duplicates, some compounds tested on different days; read-out: HiBiT IKZF1: DC50.
Where [10] appears, read: HT-1080, Table 1; HT-1080 SALL4 HiBiT reporter cells; maximum percentage of protein degradation.
[11] abbreviates: Table 1; HT-1080 SALL4 HiBiT reporter cells; performed once with technical duplicates, some compounds tested on different days; read-out: HiBiT SALL4: DC50.
The mark [12] stands for this setting: after 1 hour of compound incubation.
Setting [13] is: mouse, Table 4, PO (10 mg/kg), plasma.

Take `N#Cc1ccc(N2CCN(Cc3ccc(Cc4ccc5c6c(cc(F)cc46)C(=O)N5[C@H]4CCC(=O)NC4=O)cc3)CC2)c(F)c1` (single isomer, unassigned) [Compound 9-B]: in data set [1] (setting [6]), the IC50 turned out to be 0.022 nM. In data set [1], the Ymin is 5.6 (n = 3) %. In data set [2] (setting [7]), the AUC(0-t) was determined as 73600 ng·h/mL. The compound also registered a Cmax in data set [2] (setting [7]) of 4390 ng/mL. The compound further had a half-life in data set [2] (setting [7]) of 498 min. Further, the Dmax in data set [3] (setting [8]) was 90.9%; in data set [3] (HT-1080, Table 2; HT-1080 IKZF1 HiBiT reporter cells; all compounds tested on the same day), 93.8%; in data set [4] (setting [10]), 59.5%; in data set [4] (HT-1080, Table 2; HT-1080 SALL4 HiBiT reporter cells; all compounds tested on the same day), 59.4%; in data set [5] (setting [12]), about 77%; in data set [5] (after 4 hours of incubation) it was 92%. Besides, the DC50 in data set [3] (setting [9]) is 0.134 nM; in data set [3] (Table 2; HT-1080 IKZF1 HiBiT reporter cells; all compounds tested on the same day; read-out: HiBiT IKZF1: DC50) it was 0.102 nM; in data set [4] (setting [11]) it was 104 nM; in data set [4] (Table 2; HT-1080 SALL4 HiBiT reporter cells; all compounds tested on the same day; read-out: HiBiT SALL4: DC50), 102 nM; in data set [5] (setting [12]), about 0.4 nM; in data set [5] (after 4 hours of incubation), under 0.2 nM.

As for `N#Cc1ccc(N2CCN(Cc3ccc(COc4cccc5c4CN([C@H]4CCC(=O)NC4=O)C5=O)cc3)CC2)c(F)c1` [CC-92480, reference compound], the 50% inhibitory concentration (IC50) in data set [1] (setting [6]) is 0.041 nM. For the same compound, the Ymin in data set [1] is 7.5 (n = 7) %. For the same compound, the Dmax in data set [3] (Table 2; HT-1080 IKZF1 HiBiT reporter cells; all compounds tested on the same day) is 95.5%; in data set [4] (Table 2; HT-1080 SALL4 HiBiT reporter cells; all compounds tested on the same day) it was 75.8%. Also, the figures for the DC50 in data set [3] (read-out: HiBiT IKZF1: DC50; Table 2; HT-1080 IKZF1 HiBiT reporter cells; all compounds tested on the same day) and in data set [4] (read-out: HiBiT SALL4: DC50; Table 2; HT-1080 SALL4 HiBiT reporter cells; all compounds tested on the same day) were 0.105 nM and 3.4 nM, respectively.

Take `Nc1cccc2c1C(=O)N(C1CCC(=O)NC1=O)C2=O` (stereo not drawn) [Pomalidomide]: the IC50 in data set [1] (120 h) was over 30 nM. Further, the Dmax in data set [3] (Table 1; HT-1080 IKZF1 HiBiT reporter cells; maximum percentage of protein degradation) is 79.5%; in data set [4] (Table 1; HT-1080 SALL4 HiBiT reporter cells; maximum percentage of protein degradation), 69.7%.

Regarding `N#Cc1ccc(N2CCN(Cc3ccc(Cc4ccc5c6c(cc(F)cc46)C(=O)N5C4CCC(=O)NC4=O)cc3)CC2)c(F)c1` (stereo not drawn) [Compound 9], the IC50 in data set [1] (setting [6]) is 0.04 nM. Also, the Ymin in data set [1] is listed as 4.0 (n = 2) %. Besides, the F in data set [2] (Table 4, PO (10 mg/kg) vs IV (2 mg/kg)) turned out to be 27.1%. In addition, the AUC(0-t) in data set [2] (mouse, IV (2 mg/kg), plasma) was found to be 17200 ng·h/mL; in data set [2] (setting [13]) it was 23300 ng·h/mL. The same compound yielded a clearance in data set [2] (mouse, IV (2 mg/kg), plasma) of 1.57 mL/min/kg. In data set [2] (mouse, IV (2 mg/kg), plasma), the half-life is 612 min. Moreover, the Vd in data set [2] (mouse, IV (2 mg/kg), plasma, read-out: Vss) worked out at 1.32 L/kg. The compound also displayed a Cmax in data set [2] (setting [13]) of 1460 ng/mL. Moreover, the figures for the Dmax in data set [3] (setting [8]) and in data set [4] (setting [10]) were 91.6% and 58.1%, respectively. In addition, the DC50 in data set [3] (setting [9]) amounted to 0.074 nM; in data set [4] (setting [11]), 32 nM.

For the origin of these results see patent US20240360150A1, “ISOINDOLINONE COMPOUNDS AND USES THEREOF” (HANGZHOU GLUBIO PHARMACEUTICAL CO. LTD., priority 2021, published 2024).
